# Columns and labels:
# human ACC2 = target: T1, human ACC2 (Homo sapiens, UniProt O00763); test: Measurement of ACC2 inhibitory activity (malachite green, recombinant ACC2 (Nd)); type: biochemical; conditions: read-out: ACC2 inhibitory rate (%)
# T1 construct: His6 (from vector pFAST-BacHTa); made in house; host or cells: SF-9 insect cells, recombinant baculovirus BAC-ACC2 (Nd)
# Experimental: The ACC2 inhibitory action of the compound of the present invention was evaluated by the following method.
# (1) Cloning of Human ACC2 Gene and Preparation of Recombinant Baculovirus
# Human ACC2 gene was cloned by PCR using a human skeletal muscle cDNA library (Clontech) as a template and Primer 1 and Primer 2 shown below. Primer 1 and Primer 2 were prepared by adding SalI, XbaI restriction enzyme recognition sequences based on the information of the base sequence of human ACC2 gene (Genbank Accession U89344).
# (§1) PCR was performed using Pyrobest DNA polymerase (TAKARA BIO INC.). The obtained PCR product was cloned to pT7 Blue vector (Novagen) and after confirmation of the base sequence, digested with restriction enzymes SalI and XbaI. The obtained DNA fragment was inserted into pFAST-BacHTa (Invitrogen) digested with restriction enzymes SalI and XbaI to give expression plasmid ACC2/pFAST-BacHTa.
# A plasmid for expression of ACC2 without a mitochondrial targeting sequence was prepared by PCR using the expression plasmid as a template, and Primer 3 (SalI restriction enzyme recognition sequence was added) and Primer 4 prepared by reference to the information of human ACC2 gene base sequence (Genbank Accession U89344).
# as §1, with “Pyrobest-DNA” for “Pyrobest DNA”, “AflII.” for “XbaI.”, “ACC2/pFAST-BacHTa” for “pFAST-BacHTa (Invitrogen)”, “AflII” for “XbaI”, “ACC2mito7/pFAST-BacHTa.” for “ACC2/pFAST-BacHTa.”
# Using the expression plasmid ACC2mito7/pFAST-BacHTa and BAC-TO-BAC Baculovirus Expression System (Invitrogen), virus stock BAC-ACC2 of recombinant Baculovirus (N terminal deleted (hereinafter Nd)) was prepared.
# (2) Preparation of ACC2 (Nd) Protein
# SF-9 cells (Invitrogen) were inoculated to a medium (2 L) for insect cells (Sf-900IISFM medium (Invitrogen) containing 10% fetal bovine serum (Trace), 50 mg/L Gentamicin (Invitrogen), 0.1% Pluronic F-68 (Invitrogen)) at 0.5×10^6 cells/mL, and cultured with shaking in Wave Bioreactor (Wave) at 27° C., 20 rpm, rocking angle 6°, oxygen concentration 30%.
# On day 4 of the culture, 3 L of the medium for insect cells was added, the rocking angle was set to 8°, and the cells were further cultured. On day 5 of the culture, 100 mL of recombinant Baculovirus BAC-ACC2 (Nd) was added, 5 L of the medium for insect cells was further added, the rocking angle was set to 11°, and the cells were cultured for 3 days. The culture medium was centrifuged at 1000×g for 10 min to give virus-infected cells. The cells were washed with phosphate buffered saline (Invitrogen) and centrifuged under the same conditions. The obtained cells were cryopreserved at −80° C.
# The cryopreserved cells were thawed in ice and suspended in 900 mL of 25 mM HEPES buffer (pH 7.5) containing 10% Glycerol, 0.13 M NaCl, 1 mM EDTA, 25 mM Sodium β-Glycerophosphate and 1 mM Sodium Orthovanadate, and supplemented with Complete Protease Inhibitor (Nippon Boehringer Ingelheim Co., Ltd.). The obtained suspension was homogenized three times in a polytron homogenizer (Kinematica) at 20,000 rpm for 30 sec. The obtained cell disruption solution was clarified by centrifugation at 31000×g for 60 min, and filtered through a 0.45 μm filter. The filtrate was passed through a column packed with 60 mL of Ni-NTA Super Flow Gel (QUIAGEN) at a flow rate of about 5 mL/min. The column was washed with buffer A (50 mM HEPES (pH 7.5) containing 0.3 M NaCl), further washed with buffer A containing 20 mM Imidazole, and eluted with buffer A containing 100 mM Imidazole. The eluate was concentrated with Vivaspin 20 (Vivascience) with a molecular weight cut off of 30K. The obtained concentrate was dialyzed against 50 mM HEPES (pH 7.5) containing 10 mM MgCl2, 2 mM Dithiothreitol, 10 mM Tripotassium Citrate and 0.3 M NaCl. The inner dialysate was filtered through a 0.22 μm filter to give ACC2 (Nd). […]
# [1] = Body weight after 4 weeks of oral administration in rats on Western diet (anti-obesity action); type: in vivo, rat; conditions: male F344/Jcl rats; for body weight after administration for 4 weeks: Western diet, Mean ± S.D., N = 6
# Experimental: 6-week-old male F344/Jcl rats (CLEA Japan, Inc., Tokyo) were individually reared immediately after purchase and Western diet (D12079B, Research diet) was given. From the next day, an acclimation dosing (0.5% Methyl Cellulose, 5 mL/kg, oral administration) was started (once between 8:00 AM and 11:00 AM) and body weight and food consumption amount were appropriately measured. The rats with body weight and consumption amount extremely out of the average values in the acclimation dosing period were excluded. At the stage of 7-week-old, the body weight, food consumption amount, and body fat by Echo-MRI were measured, and the rats were grouped (6 per group) based on these measurement results. During 4 weeks of the test period, body weight was measured between 8:00 AM and 11:00 AM, and a solvent (0.5% Methyl Cellulose) or a test compound (0.5% Methyl Cellulose suspension) was consecutively administered by gavage at 5 mL/kg.
# 4 Weeks later, the body weight was measured in the morning. All values show mean±standard deviation and Williams' test and t-test were used for statistical analysis.
# [2] = Respiratory quotient (RQ) measurement in rats on Western diet; type: in vivo, rat; conditions: 20 mg/kg by gavage, male F344/Jcl rats, Mean ± S.D., N = 5
# Experimental: 5-week-old male F344/Jcl rats (CLEA Japan, Inc., Tokyo) were acclimated to the rearing environment for 1 week after purchase and the diet was changed to Western diet (D12079B, Research diet). They were used for the experiment of Respiratory quotient (RQ) measurement at 8-week-old. For the RQ measurement experiment, the body weight was measured in the late afternoon (15:30-16:30) of the previous day and the morning (8:00-9:00) of the day, and the rats with high or low body weight increase were excluded. To the animals were administered by gavage 15 mL/kg of a liquid diet (F2LCW, Oriental Yeast Co., Ltd) prepared to a concentration of 4.95 g/15 mL (1.436 kcal/mL), and they were placed in an indirect calorimeter (Oxymax) chamber manufactured by Columbus Instruments, and RQ was recorded every 10 min. RQ values were confirmed about 1 hr after the start of the measurement and the animals were grouped (5 per group) such that a difference between groups would be small. For medication, a solvent (0.5% Methyl Cellulose, Wako Pure Chemical Industries, Ltd.) or a test compound (0.5% Methyl Cellulose suspension) was administered by gavage at 5 mL/kg. RQ was measured at 10 minute intervals from 0 to 3 hours after administration, and the average thereof was calculated. All values are shown in mean±standard deviation and statistical analysis was performed by the Dunnett-test.
# T1 sequence (O00763 117-2458 limits assumed): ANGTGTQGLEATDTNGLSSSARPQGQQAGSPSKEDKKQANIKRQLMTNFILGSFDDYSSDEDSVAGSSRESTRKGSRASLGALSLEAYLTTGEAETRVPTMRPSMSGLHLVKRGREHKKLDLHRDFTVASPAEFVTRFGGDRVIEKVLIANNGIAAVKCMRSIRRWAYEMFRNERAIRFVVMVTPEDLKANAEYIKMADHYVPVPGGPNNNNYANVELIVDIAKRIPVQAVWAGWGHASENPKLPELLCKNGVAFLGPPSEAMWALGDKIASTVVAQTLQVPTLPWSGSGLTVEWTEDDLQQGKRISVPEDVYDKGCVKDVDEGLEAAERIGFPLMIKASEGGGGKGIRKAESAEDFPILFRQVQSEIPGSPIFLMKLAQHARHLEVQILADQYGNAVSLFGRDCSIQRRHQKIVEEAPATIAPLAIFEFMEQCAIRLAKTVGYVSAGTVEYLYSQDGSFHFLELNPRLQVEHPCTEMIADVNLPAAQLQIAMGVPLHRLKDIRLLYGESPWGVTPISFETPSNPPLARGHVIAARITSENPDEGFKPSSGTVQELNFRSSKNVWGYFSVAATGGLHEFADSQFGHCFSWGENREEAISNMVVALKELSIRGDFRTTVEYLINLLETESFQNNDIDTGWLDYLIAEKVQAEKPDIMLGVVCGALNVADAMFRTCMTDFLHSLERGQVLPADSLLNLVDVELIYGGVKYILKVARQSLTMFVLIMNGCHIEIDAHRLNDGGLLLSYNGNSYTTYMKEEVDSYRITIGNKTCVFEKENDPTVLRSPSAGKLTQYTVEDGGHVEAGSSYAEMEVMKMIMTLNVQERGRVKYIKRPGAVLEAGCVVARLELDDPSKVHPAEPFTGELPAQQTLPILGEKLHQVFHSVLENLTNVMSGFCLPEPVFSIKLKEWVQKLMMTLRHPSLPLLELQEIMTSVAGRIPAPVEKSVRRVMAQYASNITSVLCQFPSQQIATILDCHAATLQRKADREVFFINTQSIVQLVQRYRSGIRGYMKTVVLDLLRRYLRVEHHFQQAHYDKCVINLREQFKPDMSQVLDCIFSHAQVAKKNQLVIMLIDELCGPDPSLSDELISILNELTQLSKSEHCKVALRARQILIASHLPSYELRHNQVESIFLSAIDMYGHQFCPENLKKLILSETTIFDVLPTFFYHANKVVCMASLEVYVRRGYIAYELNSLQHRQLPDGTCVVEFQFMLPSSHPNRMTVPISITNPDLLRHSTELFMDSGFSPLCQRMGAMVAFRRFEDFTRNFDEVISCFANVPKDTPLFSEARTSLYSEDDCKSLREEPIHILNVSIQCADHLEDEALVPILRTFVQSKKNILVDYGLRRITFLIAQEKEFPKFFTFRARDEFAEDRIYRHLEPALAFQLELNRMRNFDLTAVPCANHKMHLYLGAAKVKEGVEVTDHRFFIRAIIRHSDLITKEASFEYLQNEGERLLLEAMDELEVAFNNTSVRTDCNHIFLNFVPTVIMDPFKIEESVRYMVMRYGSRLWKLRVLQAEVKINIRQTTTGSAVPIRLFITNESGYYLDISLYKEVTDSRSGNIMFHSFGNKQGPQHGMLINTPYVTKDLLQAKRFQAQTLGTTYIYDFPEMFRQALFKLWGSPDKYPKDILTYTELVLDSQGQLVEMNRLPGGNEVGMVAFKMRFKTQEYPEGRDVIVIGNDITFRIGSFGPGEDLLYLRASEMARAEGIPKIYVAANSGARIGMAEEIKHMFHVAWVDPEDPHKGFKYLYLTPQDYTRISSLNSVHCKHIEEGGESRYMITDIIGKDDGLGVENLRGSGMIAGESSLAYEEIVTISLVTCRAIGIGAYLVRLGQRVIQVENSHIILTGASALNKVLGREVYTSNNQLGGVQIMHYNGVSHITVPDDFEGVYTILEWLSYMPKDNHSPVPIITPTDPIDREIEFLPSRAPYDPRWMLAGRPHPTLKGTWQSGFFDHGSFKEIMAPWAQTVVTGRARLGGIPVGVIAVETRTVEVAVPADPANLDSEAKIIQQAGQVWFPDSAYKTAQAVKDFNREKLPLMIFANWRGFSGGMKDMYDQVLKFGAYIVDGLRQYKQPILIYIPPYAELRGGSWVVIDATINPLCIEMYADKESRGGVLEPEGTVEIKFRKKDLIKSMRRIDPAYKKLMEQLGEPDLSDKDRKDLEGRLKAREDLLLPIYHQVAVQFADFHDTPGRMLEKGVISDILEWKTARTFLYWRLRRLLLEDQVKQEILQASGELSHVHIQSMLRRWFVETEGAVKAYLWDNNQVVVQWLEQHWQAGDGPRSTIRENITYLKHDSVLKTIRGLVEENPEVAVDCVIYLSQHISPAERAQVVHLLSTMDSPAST
inhibition at 10 µM (human ACC2) [%],melting point [°C],Compound,other results
102,,"CC(=O)N[C@@H](C)COC1CCN(c2nc3ccc(OCC4CCC4)cc3o2)CC1 [Example 34, N-[(1S)-2-({1-[6-(cyclobutylmethoxy)-1,3-benzoxazol-2-yl]piperidin-4-yl}oxy)-1-methylethyl]acetamide]",
102,99.3 to 99.6,"CC(=O)N[C@@H](C)COC1CCN(c2nc3ccc(OCCC4CC4)cc3o2)CC1 [Example 35, N-[(1S)-2-({1-[6-(2-cyclopropylethoxy)-1,3-benzoxazol-2-yl]piperidin-4-yl}oxy)-1-methylethyl]acetamide]",
,104 to 105,"CC(=O)NC(C)CO[C@H]1CC[C@H](c2cc3ccc(OCC4CC4)cc3o2)CC1 (stereo partly drawn) [Example 38, N-[2-({trans-4-[6-(cyclopropylmethoxy)-1-benzofuran-2-yl]cyclohexyl}oxy)-1-methylethyl]acetamide]",
,131 to 132,"CC(=O)NC(C)CO[C@H]1CC[C@H](c2nc3ccc(OCC4CC4)cc3o2)CC1 (stereo partly drawn) [Example 39, N-[2-({trans-4-[6-(cyclopropylmethoxy)-1,3-benzoxazol-2-yl]cyclohexyl}oxy)-1-methylethyl]acetamide]",
,98 to 99,"CC(=O)N[C@@H](C)CO[C@H]1CC[C@H](n2cc3ccc(OCCC4CC4)cc3n2)CC1 [Example 40, N-[(1S)-2-({trans-4-[6-(2-cyclopropylethoxy)-2H-indazol-2-yl]cyclohexyl}oxy)-1-methylethyl]acetamide]",
,139 to 140,"CC(=O)NC(C)CC[C@H]1CC[C@H](n2cc3ccc(OCC4CC4)cc3n2)CC1 (stereo partly drawn) [Example 41, N-(3-{trans-4-[6-(cyclopropylmethoxy)-2H-indazol-2-yl]cyclohexyl}-1-methylpropyl)acetamide]",

# Continued, molecule first:
Compound,inhibition at 10 µM (human ACC2) [%],melting point [°C],other results
"CC(=O)NC(C)CCC1CCN(c2nc3ccc(OCC4CC4)cc3o2)CC1 (racemic) [Example 5, N-(3-{1-[6-(cyclopropylmethoxy)-1,3-benzoxazol-2-yl]piperidin-4-yl}-1-methylpropyl)acetamide]",104,131 to 132,
"CC(=O)N[C@@H](C)COC1CCN(c2nc3ccc(OCC4CC4)cc3o2)CC1 [Example 1, N-[(1S)-2-({1-[6-(cyclopropylmethoxy)-1,3-benzoxazol-2-yl]piperidin-4-yl}oxy)-1-methylethyl]acetamide]",97,122 to 123,comparison with control group (body weight after 4 weeks) ([1]; 20 mg/kg/day by gavage): −6.1%; body weight after administration for 4 weeks ([1]; 20 mg/kg/day by gavage): 265.1 ± 7.2; average RQ of 0 to 3 hours after administration [2]: 0.795 ± 0.013
"CC(=O)N[C@@H](C)COC1CCN(c2nc3cc(OCC4CC4)ccc3o2)CC1 [Example 2, N-[(1S)-2-({1-[5-(cyclopropylmethoxy)-1,3-benzoxazol-2-yl]piperidin-4-yl}oxy)-1-methylethyl]acetamide]",100,99 to 100,comparison with control group (body weight after 4 weeks) ([1]; 10 mg/kg/day by gavage): −5.4%; body weight after administration for 4 weeks ([1]; 10 mg/kg/day by gavage): 267.2 ± 4.1; comparison with control group (body weight after 4 weeks) ([1]; 20 mg/kg/day by gavage): −6.0%; body weight after administration for 4 weeks ([1]; 20 mg/kg/day by gavage): 265.4 ± 10.8; average RQ of 0 to 3 hours after administration [2]: 0.787 ± 0.019
"CC(=O)N[C@@H](C)COC1CCN(c2nc3cc(OCC4CC4)ccc3s2)CC1 [Example 3, N-[(1S)-2-({1-[5-(cyclopropylmethoxy)-1,3-benzothiazol-2-yl]piperidin-4-yl}oxy)-1-methylethyl]acetamide]",104,,
"CC(COC1CCN(c2nc3ccc(OCC4CC4)cc3o2)CC1)Nc1ccon1 (stereo not drawn) [Example 4, N-[2-({1-[6-(cyclopropylmethoxy)-1,3-benzoxazol-2-yl]piperidin-4-yl}oxy)-1-methylethyl]isoxazol-3-amine]",100,,
"CC(=O)N[C@@H](C)CCC1CCN(c2nc3ccc(OCC4CC4)cc3o2)CC1 [Example 5a, N-[(1S)-(3-{1-[6-(cyclopropylmethoxy)-1,3-benzoxazol-2-yl]piperidin-4-yl}-1-methylpropyl)]acetamide]",106,138.2 to 138.4,
"CC(=O)N[C@@H](C)COC1CCN(c2nc3cc(OCC4CCC4)ccc3o2)CC1 [Example 6, N-[(1S)-2-({1-[5-(cyclobutylmethoxy)-1,3-benzoxazol-2-yl]piperidin-4-yl}oxy)-1-methylethyl]acetamide]",98,109 to 110,
"Cc1conc1NC(C)COC1CCN(c2nc3ccc(OCC4CC4)cc3o2)CC1 (stereo not drawn) [Example 7, N-[2-({1-[6-(cyclopropylmethoxy)-1,3-benzoxazol-2-yl]piperidin-4-yl}oxy)-1-methylethyl]-4-methylisoxazol-3-amine]",100,,
"CC(=O)N[C@@H](C)COC1CCN(c2nc3ccc(OCC(C)C)cc3o2)CC1 [Example 33, N-[(1S)-1-methyl-2-({1-[6-(2-methylpropoxy)-1,3-benzoxazol-2-yl]piperidin-4-yl}oxy)ethyl]acetamide]",99,103 to 105,

# Reference: US8703758B2, “Bicyclic compound” (Takeda Pharmaceutical Company Limited, priority 2010, dated 2014)
